# Like-named read-outs stand apart in the source and are kept apart here.
# Legend:
# Type in all cases: cell-based
# [1] = tested on: Carbapenem-resistant Acinetobacter baumannii (CRAB); test: Test Example 1: antibacterial activity test (MIC)
# Description: (§1) The test compounds were diluted in a gradient and used for an MIC assay on the test strains. The test compounds at an initial assay concentration of 32 μg/mL were diluted in a 2-fold gradient (11 concentration points in total), and two duplicate wells were set for each concentration. Additional wells without drug dosing were set as growth controls. The minimum inhibitory concentration (MIC) assay was performed with reference to the Clinical and Laboratory Standards Institute (CLSI) guidelines.
# (§2) After the frozen strains were subcultured, a single colony was picked and re-suspended in normal saline or sterile water in a tube. The bacterial suspension was vortexed and adjusted to 0.5 McF using a spectrophotometer at the wavelength of 530 nm. The bacterial solution was taken by a pipette, added to a culture medium, diluted and mixed well, and seeded to a bacterial assay plate.
# (§3) The 96-well plate was affixed with a disposable sealing film, shaken and mixed well, and visually observed using a plate reader. The minimum concentration of the compounds capable of inhibiting the growth of bacteria was defined as MIC as compared to the growth controls.
# [2] = tested on: Carbapenem-resistant Enterobacteriaceae (CRE); test: Test Example 1: antibacterial activity test (MIC)
# Description: as §1, §2, §3
# [3] = tested on: Carbapenem-resistant Pseudomonas aeruginosa (CRPA); test: Test Example 1: antibacterial activity test (MIC)
# Description: as §1, §2, §3
# [4] = tested on: Control Strain Pseudomonas aeruginosa ATCC 27853; test: Test Example 2: antibacterial activity test (MIC); settings: ATCC27853, ID-CAMHB, ATCC 27853, read-out: ID-CAMHB, MIC
# Description: (§4) 1. The test compounds were dissolved in sterile normal saline, vortexed for uniformly mixing, and diluted in a 2-fold dilution with the sterile normal saline (11 concentration points in total). The test concentration range was 32-0.031 μg/mL, and two duplicate wells were set for each concentration. Additional wells without drug dosing were set as growth controls. 2. 4 μL of the diluent was added to 196 μL of the bacterial suspension in a 96-well plate (the bacterial count in the bacterial suspension was 2-8×10^5 colony forming units/mL). 3.
# (§5) The minimum inhibitory concentration (MIC) assay was performed with reference to the Clinical and Laboratory Standards Institute (CLSI) guidelines.
# [5] = tested on: Carbapenem-resistant Acinetobacter baumannii (CRAB, Acinetobacter baumannii); test: Test Example 2: antibacterial activity test (MIC); settings: ID-CAMHB, read-out: ID-CAMHB, MIC
# Description: as §4, §5
# [6] = tested on: Carbapenem-resistant Pseudomonas aeruginosa (CRPA, Pseudomonas aeruginosa); test: Test Example 2: antibacterial activity test (MIC); settings: ID-CAMHB, read-out: ID-CAMHB, MIC
# Description: as §4, §5
# [7] = tested on: Carbapenem-resistant Enterobacteriaceae (CRE, Klebsiella pneumoniae); test: Test Example 2: antibacterial activity test (MIC); settings: ID-CAMHB, read-out: ID-CAMHB, MIC
# Description: as §4, §5
# [8] = tested on: Control strain Escherichia coli ATCC 25922; test: Test Example 2: antibacterial activity test (MIC); settings: ATCC25922, ID-CAMHB, ATCC 25922, read-out: ID-CAMHB, MIC
# Description: as §4, §5
# [9] = FDA-CDC AR-BANK #0036 (strB, OXA-65, OXA-24, strA, sul2)
# [10] = FDA-CDC AR-BANK #0052 (OXA-58, OXA-100, sul2)
# [11] = FDA-CDC AR-BANK #0063 (OXA-23, OXA-65, OXA-24, sul2)
# [12] = FDA-CDC AR-BANK #0070 (OXA-58, OXA-100, sul2)
# [13] = FDA-CDC AR-BANK #0101 (strB, OXA-65, OXA-24, strA, sul2)
# [14] = FDA-CDC AR-BANK #0439 (aac(6′)-Il, aadA1b, BCR1, IMP-18, OXA-50)
# [15] = FDA-CDC AR-BANK #0444 (aac(6′)-Il, dfrB5, OXA-4, tet(G), VIM-2)
# [16] = FDA-CDC AR-BANK #0457 (aadA6, VIM-2)
# [17] = FDA-CDC AR-BANK #0361 (TEM-1; SHV-12; KPC-2)
# [18] = FDA-CDC AR-BANK #0362 (TEM-1; SHV-11; KPC-2)
# [19] = FDA-CDC AR-BANK #0363 (TEM-1; SHV-12; KPC-2)
# [20] = FDA-CDC AR-BANK #0438 (aph(3′)-Ia, dfrA12, KPC-3, OmpK35, oqxA, oqxB, SHV-11)
# [21] = FDA-CDC AR-BANK #0453 (KPC-3, OmpK35, oqxA, oqxB, SHV-11, TEM-1B)
SMILES,MIC [4],"MIC [5, 9]","MIC [5, 10]","MIC [5, 11]","MIC [5, 12]",MIC ([1]; CRAB strain No. 100085),MIC ([1]; CRAB strain No. 100333),MIC ([1]; CRAB strain No. 110440),MIC ([1]; CRAB strain No. 110477),MIC ([1]; CRAB strain No. 110517),MIC ([2]; CRE strain No. 100109),MIC ([2]; CRE strain No. 100186),MIC ([2]; CRE strain No. 110502),MIC ([2]; CRE strain No. 110525),MIC ([2]; CRE strain No. 311277),MIC ([3]; CRPA strain No. 100110),MIC ([3]; CRPA strain No. 110163),MIC ([3]; CRPA strain No. 110224),MIC ([3]; CRPA strain No. 110358),MIC ([3]; CRPA strain No. 110390),other results
CC(C)(O/N=C(\C(=O)N[C@@H]1C(=O)N2C(C(=O)[O-])=C(C[N+]3(CCCC[C@H](N)C(=O)O)CCCC3)CSC12)c1csc(N)n1)C(=O)O (stereo partly shown) [Compound 1],–,–,–,–,–,> 32 µg/mL,> 32 µg/mL,> 32 µg/mL,> 32 µg/mL,> 32 µg/mL,> 32 µg/mL,> 32 µg/mL,> 32 µg/mL,> 32 µg/mL,> 32 µg/mL,16 µg/mL,> 32 µg/mL,32 µg/mL,> 32 µg/mL,> 32 µg/mL,–
CON(CC[N+]1(CC2=C(C(=O)O)N3C(=O)[C@@H](NC(=O)/C(=N\OC(C)(C)C(=O)O)c4csc(N)n4)[C@H]3SC2)CCCC1)C(=O)c1ccc(O)c(O)c1Cl [Compound 3],–,–,–,–,–,3 µg/mL,6 µg/mL,4 µg/mL,4 µg/mL,1 µg/mL,3 µg/mL,6 µg/mL,> 32 µg/mL,16 µg/mL,8 µg/mL,0.562 µg/mL,1 µg/mL,1 µg/mL,2 µg/mL,2 µg/mL,–
CC(C)(O/N=C(\C(=O)N[C@@H]1C(=O)N2C(C(=O)O)=C(C[N+]3(CCNC(=S)Nc4ccc(O)c(O)c4Cl)CCCC3)CS[C@H]12)c1csc(N)n1)C(=O)O [Compound 4],–,–,–,–,–,> 32 µg/mL,> 32 µg/mL,> 32 µg/mL,> 32 µg/mL,> 32 µg/mL,> 32 µg/mL,> 32 µg/mL,> 32 µg/mL,> 32 µg/mL,> 32 µg/mL,16 µg/mL,> 32 µg/mL,> 32 µg/mL,> 32 µg/mL,> 32 µg/mL,–
CC(C)(O/N=C(\C(=O)N[C@@H]1C(=O)N2C(C(=O)O)=C(C[N+]3(CCN(O)C(=O)c4ccc(O)c(O)c4Cl)CCCC3)CS[C@H]12)c1csc(N)n1)C(=O)O [Compound 6],–,–,–,–,–,3 µg/mL,6 µg/mL,4 µg/mL,3 µg/mL,1 µg/mL,2 µg/mL,1.5 µg/mL,32 µg/mL,4 µg/mL,8 µg/mL,0.063 µg/mL,0.5 µg/mL,0.625 µg/mL,4 µg/mL,2 µg/mL,–
CC(C)(O/N=C(\C(=O)N[C@@H]1C(=O)N2C(C(=O)O)=C(C[N+]3(CCNC(=S)c4ccc(O)c(O)c4Cl)CCCC3)CS[C@H]12)c1csc(N)n1)C(=O)O [Compound 7],0.125 µg/mL,2 µg/mL,0.25 µg/mL,> 32 µg/mL,0.125 µg/mL,–,–,–,–,–,–,–,–,–,–,–,–,–,–,–,"MIC [5, 13]: 4 µg/mL; MIC [6, 14]: 8 µg/mL; MIC ([6]; FDA-CDC AR-BANK #0441 (KPC-2)): 8 µg/mL; MIC [6, 15]: 32 µg/mL; MIC [6, 16]: 1 µg/mL; MIC [7, 17]: 1 µg/mL; MIC [7, 18]: 1 µg/mL; MIC [7, 19]: 0.5 µg/mL; MIC [7, 20]: 2 µg/mL; MIC [7, 21]: 4 µg/mL; MIC [8]: 0.125 µg/mL"
CC(C)(O/N=C(\C(=O)N[C@@H]1C(=O)N2C(C(=O)O)=C(C[N+]3(CCNC(=O)c4ccc5cc(O)c(O)cc5c4)CCCC3)CS[C@H]12)c1csc(N)n1)C(=O)O [Compound 8],0.25 µg/mL,0.25 µg/mL,0.0625 µg/mL,8 µg/mL,0.125 µg/mL,–,–,–,–,–,–,–,–,–,–,–,–,–,–,–,"MIC [5, 13]: 2 µg/mL; MIC [6, 14]: 1 µg/mL; MIC ([6]; FDA-CDC AR-BANK #0441 (KPC-2)): 4 µg/mL; MIC [6, 15]: 4 µg/mL; MIC [6, 16]: 0.25 µg/mL; MIC [7, 17]: 2 µg/mL; MIC [7, 18]: 1 µg/mL; MIC [7, 19]: 0.25 µg/mL; MIC [7, 20]: 2 µg/mL; MIC [7, 21]: 2 µg/mL; MIC [8]: 0.25 µg/mL"

# Continued, in another order:
MIC [4],"MIC [5, 9]","MIC [5, 10]","MIC [5, 11]","MIC [5, 12]",SMILES,MIC ([1]; CRAB strain No. 100085),MIC ([1]; CRAB strain No. 100333),MIC ([1]; CRAB strain No. 110440),MIC ([1]; CRAB strain No. 110477),MIC ([1]; CRAB strain No. 110517),MIC ([2]; CRE strain No. 100109),MIC ([2]; CRE strain No. 100186),MIC ([2]; CRE strain No. 110502),MIC ([2]; CRE strain No. 110525),MIC ([2]; CRE strain No. 311277),MIC ([3]; CRPA strain No. 100110),MIC ([3]; CRPA strain No. 110163),MIC ([3]; CRPA strain No. 110224),MIC ([3]; CRPA strain No. 110358),MIC ([3]; CRPA strain No. 110390),other results
> 32 µg/mL,> 32 µg/mL,> 32 µg/mL,> 32 µg/mL,> 32 µg/mL,CC(=O)N(O)CC[N+]1(CC2=C(C(=O)O)N3C(=O)[C@@H](NC(=O)/C(=N\OC(C)(C)C(=O)O)c4csc(N)n4)[C@H]3SC2)CCCC1 [Compound 5],–,–,–,–,–,–,–,–,–,–,–,–,–,–,–,"MIC [5, 13]: > 32 µg/mL; MIC [6, 14]: > 32 µg/mL; MIC ([6]; FDA-CDC AR-BANK #0441 (KPC-2)): > 32 µg/mL; MIC [6, 15]: > 32 µg/mL; MIC [6, 16]: > 32 µg/mL; MIC [7, 17]: > 32 µg/mL; MIC [7, 18]: > 32 µg/mL; MIC [7, 19]: > 32 µg/mL; MIC [7, 20]: > 32 µg/mL; MIC [7, 21]: > 32 µg/mL; MIC [8]: > 32 µg/mL"
> 32 µg/mL,> 32 µg/mL,> 32 µg/mL,> 32 µg/mL,> 32 µg/mL,CC(C)(O/N=C(\C(=O)N[C@@H]1C(=O)N2C(C(=O)O)=C(C[N+]3(CCNC(=N)c4ccc(O)c(O)c4Cl)CCCC3)CS[C@H]12)c1csc(N)n1)C(=O)O [Compound 9],–,–,–,–,–,–,–,–,–,–,–,–,–,–,–,"MIC [5, 13]: > 32 µg/mL; MIC [6, 14]: > 32 µg/mL; MIC ([6]; FDA-CDC AR-BANK #0441 (KPC-2)): > 32 µg/mL; MIC [6, 15]: > 32 µg/mL; MIC [6, 16]: > 32 µg/mL; MIC [7, 17]: > 32 µg/mL; MIC [7, 18]: 16 µg/mL; MIC [7, 19]: > 32 µg/mL; MIC [7, 20]: > 32 µg/mL; MIC [7, 21]: > 32 µg/mL; MIC [8]: 16 µg/mL"

# From patent publication US20230121689A1, “CEPHALOSPORIN ANTIBACTERIAL COMPOUND AND PHARMACEUTICAL APPLICATION THEREOF” (priority 2020, published 2023)
